The results in this text go back to patent US20230338491A1, “METHOD FOR SCREENING INDIVIDUAL TUMOR NEOANTIGEN PEPTIDE, AND VACCINE FORMULATION THEREOF” (HANGZHOU NEOANTIGEN THERAPEUTICS CO., LTD., priority 2021, published 2023).

This data set in a line: solubility comparison test in water and mannitol solutions. The class given is physicochemical. The text has this: Mannitol is a common adjuvant (skeleton forming agent) of freeze-dried preparation, which is used as a carrier to form a hard uniform skeleton so as to improve appearance of the freeze-dried preparation in glass bottles. […] Hydroxyl groups in mannitol molecule can form hydrogen bonds with carbonyl groups in peptide bonds, which cannot directly promote dissolution of polypeptides, but can promote formation of micelle. Therefore, solubilization of mannitol is mainly solubility enhancement after micelle formation. Results of solubility comparison test of the same polypeptide in water and mannitol solutions with different concentrations shown in table 7 as follows: […]

The mark [1] stands for this setting: 1% of mannitol solution, read-out: Solubility in 1% of mannitol solution.
The mark [2] stands for this setting: 2% of mannitol solution, read-out: Solubility in 2% of mannitol solution.
[3] abbreviates: water, read-out: Solubility in water.
The mark [4] stands for this setting: Solubility in 1% of mannitol solution.
[5] abbreviates: Solubility in 2% of mannitol solution.

Where two headings read alike, the source gives them in different places. Ends that are not written are not given here.

Turning to “PGWSLTLGLRCSSRLGLPK [LYLI37, PGWSLTLGLRCSSRLGLPK]”, the solubility is at least 1000 µg/mL under setting [1], at least 1000 µg/mL under setting [2] and below 100 µg/mL under setting [3].
With FAEKLTLILQEKYKNYWYPEKPSKGQAY [YMZH17], the solubility by setting is: under setting [1], at least 1000 µg/mL; under setting [2], at least 1000 µg/mL; under setting [3], 300 µg/mL.
As for KKKGQQLSGVNAIYFYADQIYLSAGVPEEH [GWMI10], the solubility is, setting by setting: under setting [1], at least 1000 µg/mL; under setting [2], at least 1000 µg/mL; under setting [3], below 100 µg/mL.
Regarding KLTLASWGPKMVLLRLEHQFAVGK [YMZH14], the solubility reads like this: under setting [1], at least 1000 µg/mL; under setting [2], at least 1000 µg/mL; under setting [3], 300 µg/mL.
Regarding KLVFVRKSLNRIEFRECREEILKFLKK [GWMI13], the solubility is at least 1000 µg/mL under setting [1], at least 1000 µg/mL under setting [2] and below 100 µg/mL under setting [3].
On to SVFGDRITGETIRSQNVMAAASK [WKYE17], for which the solubility by setting is: under setting [1], at least 1000 µg/mL; under setting [2], at least 1000 µg/mL; under setting [3], below 100 µg/mL.
Take FITRPPHRFLSLLCLGLRIPQLSV [YMZH19]: the solubility under setting [1] was above 1000 µg/mL, the solubility under setting [2] is above 1000 µg/mL and the solubility under setting [3] is below 100 µg/mL.
On to KGFTQGDVGLAMGKLYRNDFSQTTISRFEA [TZQI66], for which the solubility runs as follows: under setting [1], at least 1000 µg/mL; under setting [2], at least 1000 µg/mL; under setting [3], below 100 µg/mL.
On to SRKLEDYGEQKSMSISTAKRLAEFLGDQK [HMZH59], for which the solubility under setting [1] is at least 1000 µg/mL, the solubility under setting [2] is at least 1000 µg/mL and the solubility under setting [3] is 300 µg/mL.
Regarding YKQLTIQVLLDRLVLQRLYPLAIQIKK [YMZH10], the solubility runs as follows: under setting [1], at least 1000 µg/mL; under setting [2], at least 1000 µg/mL; under setting [3], 300 µg/mL.
Turning to “TSLKGEIAFDPRRAYYLWF [LXJI54, TSLKGEIAFDPRRAYYLWF]”, the solubility reads like this: under setting [1], at least 1000 µg/mL; under setting [2], at least 1000 µg/mL; under setting [3], below 100 µg/mL.
Take KKKKFVALVLSTLHMLTYGWTRAFEESRYK [ZZJI44]: the solubility is at least 1000 µg/mL under setting [1], at least 1000 µg/mL under setting [2] and below 100 µg/mL under setting [3].
Turning to KFKYVGTMEASEDATFNKITRSLQDLQQK [HMZH66], the solubility was at least 10000 µg/mL under setting [1], at least 10000 µg/mL under setting [2] and at most 1500 µg/mL under setting [3].
In the case of FHDQPHLKRKAVCSFQIYAVPWQGT [HMZH51], the solubility is, setting by setting: under setting [1], at least 10000 µg/mL; under setting [2], at least 10000 µg/mL; under setting [3], below 2000 µg/mL.
As for SSPAEFFELMKGQIRIAKRRVVMASLYLGT [TZQI51], the solubility is, setting by setting: under setting [1], at least 1000 µg/mL; under setting [2], at least 1000 µg/mL; under setting [3], below 100 µg/mL.
In the case of KEQMMREKEKLMLRLQDYEEKTKK [ZZJI58], the solubility is at least 1000 µg/mL under setting [1], at least 1000 µg/mL under setting [2] and below 100 µg/mL under setting [3].
Turning to GQAFKYSSNLLRHMRTHTGEKPF [HMZH60], the solubility is at least 10000 µg/mL under setting [4], at least 10000 µg/mL under setting [5] and below 2000 µg/mL (Solubility in water).
Consider DIQDLKTCIASTTQNIEQKKK [WJIA11], for which the solubility runs as follows: under setting [1], at least 1000 µg/mL; under setting [2], at least 1000 µg/mL; under setting [3], below 100 µg/mL.
`CC[C@H](C)[C@H](NC(=O)[C@H](CC(C)C)NC(=O)[C@H](CCC(N)=O)NC(=O)[C@@H](NC(=O)[C@@H](NC(=O)[C@H](CC(C)C)NC(=O)[C@H](C)NC(=O)[C@H](CO)NC(=O)[C@H](CCCCN)NC(=O)CNC(=O)[C@@H](NC(=O)CNC(=O)[C@H](CC(=O)O)NC(=O)[C@H](C)NC(=O)CNC(=O)[C@@H](NC(=O)[C@@H](NC(=O)[C@@H](N)CCCCN)C(C)C)C(C)C)C(C)C)[C@@H](C)O)[C@@H](C)CC)C(=O)N[C@@H](CCC(N)=O)C(=O)N[C@@H](CC(N)=O)C(=O)N[C@@H](Cc1c[nH]cn1)C(=O)O` [GWMI01]: the solubility reads like this: under setting [4], at least 1000 µg/mL; under setting [5], at least 1000 µg/mL; (Solubility in water) below 100 µg/mL.

By solubility is commonly meant the concentration that dissolves in the medium under given conditions.
